Where “and” joins values, the source holds several entries; their conditions need not be identical. Equal entries are not always repeated.
What was measured:
[1] = system: German cockroach (Blattella germanica); assay: Choice test arena repellency bioassay, adult male German cockroach, 300-second test; assay type: in vivo; conditions: for Mean Treated / Mean Untreated: 300-second test; for % repellency: (untreated − treated/300)*100
Experimental: Test Procedure. Repellency bioassays were conducted to assess the repellent properties of compositions containing catnip steam distillate (nepetalactone), Z,E-nepetalactone, E,Z-nepetalactone and DEET against cockroaches. Certified acetone and certified hexane were also tested in order to evaluate solvent effects. (DEET was dissolved in acetone, because DEET is insoluble in hexane. The tested compounds were dissolved in hexane because hexane was the solvent used to extract these compounds from the distillate). One Whatman 125-mm round filter paper was cut in half. One side was treated with one (1) ml of the test compound and the other side was treated with one (1) ml of solvent. The papers were allowed to dry in a fume hood for approximately two (2) minutes before being placed in a 150-mm Petri dish arena. The relative position of the treated side (i.e., to the right or left) of the dish was randomized using a random number table. […] The hole was stopped using a small piece of tape to prevent the insect from escaping. One adult male German cockroach (Blattella germanica) was selected from the colony and dropped into the pre-formed hole in the Petri dish lid. […] Ten (10) replications were performed for each test compound. Results. Using mean values and their related Standard Error of the Mean values (SEM), repellency of the selected samples was determined as shown in Table 2. Significance due to concentration was determined using ANOVA. […] Comparisons between test compounds were made using a two-tailed paired t-test (“paired t-test”) which indicates “differences” as is known in the art and shown in Table 4 (as compared with a “one-tailed” test, which indicates “greater or less than”). Testing Procedure. The same procedure described in Example 1 was used.

[2] = system: yellow fever mosquitoes, Aedes aegypti; assay: Static-air repellency chamber, spatial and contact repellency, adult female yellow fever mosquitoes; assay type: in vivo; conditions: for long term repellency (in excess of two hours): Table 20, up to 360 min; for Average Percentage Repellency Over Time: application rate 78.6 μg/cm^2
Experimental: Test Equipment. In this testing, a static air repellency chamber was used. The apparatus consisted of a 9×60-cm section of glass tubing with a 2-cm hole drilled at the midpoint along the length for central introduction of the insects. All of the testing was conducted in an environmental chamber at ambient temperatures.
Test Methods. The data for spatial repellency was collected at 15 minutes after the introduction of female yellow fever mosquitoes into a static air repellency chamber. Data for the contact repellency was collected after three hours. The concentrations used in the tests are 1% solution (1 ml of it on a 9-cm diameter filter paper). One (1) ml of a 1% (wt/vol) solution of repellent substance containing hexane as a carrier was pipetted onto a 9-cm diameter filter paper results in a concentration of 157 μg/cm^2. The solution contained the desired mass of compound to be tested added to the desired volume of hexane, e.g., for a 1% solution of catnip essential oil, […] was added to 100 ml of hexane.
One milliliter of the solution was applied to one half of a 9-cm diameter round filter paper with an area of 63.6 cm^2 and then allowed to dry before testing. […] Treated filter papers were placed inside the lids of 9-cm glass petri dishes, and placed over the ends of the glass tube. The position of the treated side, to the right or to the left, was selected by using a random-number table. Approximately fifteen unmated adult female mosquitoes were anaesthetized with CO2 and then introduced to the 9×60-cm glass cylinder through the centered 2-cm hole. Timing began 2 minutes after mosquito introduction, and mosquito distribution inside the static-air choice-test apparatus was observed over a 15-minute period for each treatment to determine spatial repellency. Basically the number of mosquitoes in the non-treated half were considered to be repelled and were counted. Percent repellency was considered to be: (Number of Individuals on Untreated Half−Number of Individuals on Treated Half)/15)×100. Contact repellency was defined in this assay as 100% avoidance of the treated filter paper-after three hours. The experimental design was a completely randomized design using six replications of each treatment.
All test methods were the same as described in Example 7, except spatial repellency over a longer period.
Test Methods. […] Also only three replications were used instead of six.

[3] = 0.1% test solution vs solvent-treated half, male
[4] = 0.5% test solution vs solvent-treated half, male
[5] = 1% test solution vs solvent-treated half, male
[6] = 5% test solution vs solvent-treated half, male
[7] = 10% test solution vs solvent-treated half, male

SMILES: CCN(CC)C(=O)c1cccc(C)c1 [DEET, N,N-diethyl-3-methylbenzamide, reference compound]
- Mean Treated [1, 3]: 129 s
- Mean Untreated [1, 3]: 175 s
- Mean Treated [1, 4]: 128 s
- Mean Untreated [1, 4]: 175 s
- Mean Treated [1, 5]: 120 s
- Mean Untreated [1, 5]: 181 s
- Mean Treated [1, 6]: 113 s
- Mean Untreated [1, 6]: 190 s
- Mean Treated [1, 7]: 63 s and 63.4 s
- Mean Untreated [1, 7]: 238 s
- Mean seconds on treated side ± SEM ([1]; Non-antennectomized male cockroaches, 1600 μg/cm^2): 63.4 ± 15.9 s
- % repellency ([1]; dose 16 μg/cm^2): 15%
- Mean seconds on treated side ± SEM ([1]; dose 16 μg/cm^2, male B. germanica, in 300 seconds): 129 ± 9.0 a seconds
- % repellency ([1]; dose 80 μg/cm^2): 16%
- Mean seconds on treated side ± SEM ([1]; dose 80 μg/cm^2, male B. germanica, in 300 seconds): 128 ± 9.7 a seconds
- % repellency ([1]; dose 160 μg/cm^2): 20%
- Mean seconds on treated side ± SEM ([1]; dose 160 μg/cm^2, male B. germanica, in 300 seconds): 120 ± 13.8 a seconds
- % repellency ([1]; dose 800 μg/cm^2): 26%
- Mean seconds on treated side ± SEM ([1]; dose 800 μg/cm^2, male B. germanica, in 300 seconds): 113 ± 14.5 a seconds
- % repellency ([1]; dose 1600 μg/cm^2): 58%
- Mean seconds on treated side ± SEM ([1]; dose 1600 μg/cm^2, male B. germanica, in 300 seconds): 63.4 ± 15.9 b seconds
- long term repellency (in excess of two hours) [2]: long term repellency
- Average Percentage Repellency Over Time ([2]; 60 min): 64%
- Average Percentage Repellency Over Time ([2]; 120 min): 47%
- Average Percentage Repellency Over Time ([2]; 360 min): 49%
- Average Percentage Repellency Over Time ([2]; Initial): 52%

SMILES: C=CC1(C)CCC(C(C)(C)O)CC1C(=C)C (centres unmarked) [Elemol]
- Mean Treated ([1]; amount used 1% solution): 107 s
- Mean Untreated ([1]; amount used 1% solution): 196 s
- % repellency ([1]; amount used 1% solution): 30%
- % repellency ([2]; 78.6 μg/cm^2 (equivalent to a 0.5% solution), determined at 15 minutes, three replications): 38.9%
- Avoidance Frequency ([2]; Conc 1% (157 μg/cm^2), average of mosquito contact repellency over 3-hour time period): 97
- Repellency (%) (15-minute spatial repellency) ([2]; Conc 1% (157 μg/cm^2), determined at 15 minutes, six replications): 63.6%
- long term repellency (in excess of two hours) [2]: long term repellency
- Average Percentage Repellency Over Time ([2]; 60 min): 52%
- Average Percentage Repellency Over Time ([2]; 120 min): 43%
- Average Percentage Repellency Over Time ([2]; 360 min): 35%
- Average Percentage Repellency Over Time ([2]; Initial): 56%
- spatial and contact repellency over a 6-hour time period ([2]; other data from our lab, 6-hour time period): good spatial and very good contact repellents

Reference: patent US7939091B2, “Biorational repellents obtained from terpenoids for use against arthropods” (Iowa State University Research Foundation, Inc., priority 1999, dated 2011)
